Measurements: patent US5364942A, “Sulphonylbenzyl-substituted imidazopyridines” (Bayer Aktiengesellschaft, priority 1992, dated 1994)

What was measured:
[1] = test system: angiotensin II-induced contraction of the isolated rabbit aorta; assay: Inhibition of angiotensin II-induced vascular contraction on isolated aortic rings of the rabbit in vitro; type: cell-based; conditions: Oryctolagus cuniculus, agonist angiotensin II, effect at 3rd = submaximal agonist concentration, read-out: IC50 against contractions induced by: AII
Experimental: Rabbits of both sexes are stunned by a blow to the neck and exsanguinated, or in some cases anaesthetised with Nembutal (about 60-80 mg/kg i.v.) and sacrificed by opening the thorax. The thoracic aorta is removed, freed from attached connective tissue and divided into ring segments 1.5 mm wide, and the segments are introduced individually, under an initial load of about 3.5 g, in 10 ml organ baths containing carbogen-gassed Krebs-Henseleit nutrient solution thermostatically controlled at 37° C. and having the following composition: 119 mmol/l of NaCl; 2.5 mmol/l of CaCl2 ×2H2 O; 1.2 mmol/l of KH2 PO4; 10 mmol/l of glucose; 4.8 mmol/l of KCl; 1.4 mmol/l of MgSO4 ×7H2 O and 25 mmol/l of NaHCO3.
The contractions are recorded isometrically by Statham UC2 cells via bridged amplifiers (ifd Mulheim or DSM Aalen) and are digitised and evaluated by means of an A/D converter (System 570, Keithley Munich). The agonist dose/effect curves (DEC) are plotted hourly. With every DEC, 3 or 4 individual concentrations are applied to the baths at intervals of 4 minutes. The end of the DEC and subsequent wash-out cycles (16 times for in each case about 5 seconds/minute with the above nutrient solution) is followed by a 28-minute rest or incubation phase, during which the contractions as a rule reach the starting value again.
The level of the third DEC in the normal case is used as the reference parameter for evaluation of the test substance which is to be investigated in subsequent passes and is applied to the baths for the following DECs at the start of the incubation time at a dosage which increases each time. Each aortic ring is stimulated over the whole day with always the same agonist.
(§1) ______________________________________
Agonists and their standard concentrations (Application
volume per individual dose = 100 μl):
as §1
For calculation of the IC50 (concentration at which the substance under investigation causes 50% inhibition), the particular effect at the 3rd=submaximal agonist concentration is taken as the basis.

smooth muscle cells = assay: Inhibition of proliferation of smooth muscle cells (3H-thymidine incorporation); type: cell-based; conditions: 10^-6 M, smooth muscle cells from aortas of rats or pigs
Experimental: Smooth muscle cells obtained from the aortas of rats or pigs by the media explantate technique [R. Ross, J. Cell. Biol. 50, 172, 1971] are used to determine the antiproliferative action of the compounds.
The cells are sown in suitable culture dishes, as a rule 24-hole plates, and cultured for 2-3 days in medium 199 with 7.5% of FCS and 7.5% of NCS, 2 mM L-glutamine and 15 mM HEPES, pH 7.4, in 5% CO2 at 37° C. The cells are then synchronised for 2-3 days by withdrawal of the serum, and subsequently stimulated into growth with AII, serum or other factors. Test compounds are added at the same time. […]

angiotensin II receptor = biological target: T1, angiotensin II receptor (Bos taurus, UniProt P25104); assay: Interaction with the angiotensin II receptor on membrane fractions of the adrenal cortex; type: binding, cattle; conditions: bovine adrenal cortex membranes; 3H-angiotensin II (3-5 nM); 60 minutes at room temperature
T1 construct: partly purified membrane fractions of bovine AC with radioactive angiotensin II; from tissue; host or cells: bovine adrenal cortex, partly purified membrane fractions
T1 sequence (P25104 1-359): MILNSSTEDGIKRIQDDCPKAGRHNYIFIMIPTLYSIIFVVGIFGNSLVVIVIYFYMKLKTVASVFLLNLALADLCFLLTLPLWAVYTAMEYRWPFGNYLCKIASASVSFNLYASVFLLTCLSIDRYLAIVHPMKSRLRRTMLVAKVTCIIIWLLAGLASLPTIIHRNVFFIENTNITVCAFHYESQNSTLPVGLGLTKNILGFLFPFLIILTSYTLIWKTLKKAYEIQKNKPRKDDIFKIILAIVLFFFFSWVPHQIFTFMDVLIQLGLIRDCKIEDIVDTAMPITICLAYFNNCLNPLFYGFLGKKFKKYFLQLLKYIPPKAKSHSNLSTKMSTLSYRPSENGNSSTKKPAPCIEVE
Experimental: Adrenal cortices from cattle (AC), which are freshly removed and carefully freed from medulla of the capsule, are comminuted to a coarse membrane homogenate in sucrose solution (0.32M) with the aid of an Ultra-Turrax (Janke & Kunkel, Staufen i.B.), and the homogenate is partly purified to membrane fractions in two centrifugation steps.
The investigations on receptor bonding are carried out on partly purified membrane fractions of bovine AC with radioactive angiotensin II in an assay volume of 0.25 ml, which specifically contains the partly purified membranes (50-80 μg), 3H-angiotensin II (3-5 nM), test buffer solution (50 mM Tris, pH 7.2), 5 mM MgCl2 and the substances to be investigated. After an incubation time of 60 minutes at room temperature, the non-bonded radioactivity of the samples is separated off by means of a moistened glass fibre filter (Whatman GF/C) and, after the protein has been washed with ice-cold buffer solution (50 mM Tris/HCl, pH 7.4, 5% PEG 6000), the bonded radioactivity is measured by spectrophotometry in a scintillation cocktail. The raw data were analysed for Ki and IC50 values by computer programs (Ki : IC50 values corrected for the radioactivity used; IC50 values: concentration at which the substance under investigation causes 50% inhibition of the specific bonding of the radio ligand).

[2] = test system: angiotensin II-infused rats; assay: Blood pressure measurements on angiotensin II-infused rats; type: in vivo, Male Wistar rats; conditions: angiotensin II-infused rats (0.3 μg/kg/minute), anaesthetised; dose 0.1 mg/kg p.o.
Experimental: Male Wistar rats (Moellegaard, Copenhagen, Denmark) with a body weight of 300-350 g are anaesthetised with thiopental (100 mg/kg i.p.). After tracheotomy, a catheter for blood pressure measurement is inserted into the femoral artery and a catheter for angiotensin II infusion and a catheter for administration of the substance are inserted into the femoral veins. After administration of the ganglion blocker pentolinium (5 mg/kg i.v.), the angiotensin II infusion (0.3 μg/kg/minute) is started. As soon as the blood pressure values have reached a stable plateau, the test substances are administered either intravenously, or orally as a suspension or solution in 0.5% of tylose. The changes in blood pressure under the influence of the substance are shown as the mean values ±SEM in the table.

SMILES | IC50 [1] | Ki (angiotensin II receptor) | inhibition at 1 µM (smooth muscle cells) | ΔP (change in blood pressure) [2]
COC(=O)[C@@H]1CCCN1S(=O)(=O)c1ccc(Cn2c(C3CC3)nc3c(C)ccnc32)c(Cl)c1 [Example 19] | 6 nM |  |  | 
COC(=O)[C@@H]1CCCN1S(=O)(=O)c1ccc(Cn2c(C3CC3)nc3c(C)cc(C)nc32)c(Cl)c1 [Example 31] | 4 nM |  |  | -62 mm Hg
CCc1nc2c(C)cc(C)nc2n1Cc1ccc(S(=O)(=O)N2CCC[C@H]2C(=O)OC)cc1Cl [Example 20, S-4-[[2-Ethyl-imidazo[4,5-b]5,7-dimethyl-pyridin]-3-yl]methyl-3-chloro-benzenesulphonyl-N-(2-methoxy-carbonyl)pyrrolidinide] | 6 nM |  |  | -48 mm Hg

Further lines, with some results ahead:

IC50 [1] | Ki (angiotensin II receptor) | SMILES | inhibition at 1 µM (smooth muscle cells) | ΔP (change in blood pressure) [2]
326 nM | 1000 nM | CCCCc1nc2cccnc2n1Cc1ccc(S(=O)(=O)N2CCCCC2C(=O)O)cc1Cl (racemic) [Example 2, rac-4-[{2-Butyl-imidazo[4,5-b]pyridin}-3-yl]methyl-3-chlorobenzenesulphonyl-N-(2-carboxy)piperidinide] | 40% | 
3 nM |  | CCc1nc2c(C)cc(C)nc2n1Cc1ccc(S(=O)(=O)N2CCC[C@H]2C(=O)O)cc1Cl [Example 41] |  | 
3 nM |  | Cc1cc(C)c2nc(C3CC3)n(Cc3ccc(S(=O)(=O)N4CCC[C@H]4C(=O)O)cc3Cl)c2n1 [Example 39] |  | -32 mm Hg
40 nM | 550 nM | CCCCc1nc2cccnc2n1Cc1ccc(S(=O)(=O)N2CCC[C@H]2C(=O)O)cc1Cl [Example 5] | 70% | 
